Where two headings read alike, the source gives them in different places.
Tests used:
HIV (LAV strain) = assay: in vitro anti-HIV efficacy (antiviral test on HIV (LAV strain)-infected CEM cells); format: cell-based; settings: Human immunodeficiency virus 1, CCRF-CEM, read-out: ID50 (the 50% inhibitory dose)
Experimental: Comparative in vitro anti-HIV efficacy^a and
^a The antiviral test was performed on HIV (LAV strain)infected CEM
^c The 50% inhibitory dose.

[1] = cellular toxicity measured in CEM cells; format: cell-based; settings: human, read-out: TCID50 (the 50% tissue culture inhibitory dose)
Experimental: cellular toxicity^b of AZT and d4T.
^b The cellular toxicity was measured in CEM cells.
^d The 50% tissue culture inhibitory dose.

AIDS = settings: clinical trials, patients with AIDS; cited from earlier work
HIV [2] = settings: cited from earlier work
HIV [3] = settings: in several cell lines; cited from earlier work

## Cc1cn([C@H]2C[C@H](N=[N+]=[N-])[C@@H](CO)O2)c(=O)[nH]c1=O [AZT, 3'-azido-3'-deoxythymidine]
HIV (LAV strain)
  IC50: 0.45 µM
[1]
  CC50: 54 µM
AIDS
  efficacy in the treatment of AIDS: efficacious agent in the treatment of AIDS in clinical trials

## Cc1cn([C@H]2C[C@H](F)[C@@H](CO)O2)c(=O)[nH]c1=O [FDDT, 3'-fluoro-3'-deoxythymidine]
HIV [2]
  reported activity against HIV: active against HIV

## O[C@H]1[C@H](O)[C@@H](O)CN2CC[C@H](O)[C@H]12 [castanospermine]
HIV [2]
  reported activity against HIV: active against HIV

## Nc1ccn([C@H]2C=C[C@@H](CO)O2)c(=O)n1 [d4C, 2',3'-dideoxy-2',3'-didehydrocytidine]
HIV [2]
  reported activity against HIV: active against HIV

## Cc1cn([C@H]2C=C[C@@H](CO)O2)c(=O)[nH]c1=O [d4T, 1-(2,3-Dideoxy-β-D-glycero-pent-2-enofuranosyl)thymine]
HIV (LAV strain); in vitro anti-HIV efficacy, HIV (LAV strain) infected CEM cells
  IC50: 0.33 µM
[1]
  CC50: 39 µM
HIV [3]
  in vitro activity against HIV: possesses in vitro activity against HIV in several cell lines

## CC(C)(S)[C@@H](N)C(=O)O [d-penicillamine]
HIV [2]
  reported activity against HIV: active against HIV

## Nc1ncnc2c1ncn2[C@H]1CC[C@@H](CO)O1 [ddA, 2',3'-dideoxyadenosine]
HIV [2]
  reported activity against HIV: active against HIV

## Nc1ccn([C@H]2CC[C@@H](CO)O2)c(=O)n1 [ddC, 2',3'-Dideoxycytidine]
HIV [2]
  reported activity against HIV: active against HIV

## O=C(O)P(=O)(O)O [foscarnet]
HIV [2]
  reported activity against HIV: active against HIV

## CC(=O)O[C@H]1C[C@@]2(C)[C@@H](C[C@@H](O)[C@H]3[C@@]4(C)CC[C@@H](O)[C@@H](C)[C@@H]4CC[C@@]32C)/C1=C(\CCC=C(C)C)C(=O)O [fusidic acid]
HIV [2]
  reported activity against HIV: active against HIV

## NC(=O)c1ncn([C@@H]2O[C@H](CO)[C@@H](O)[C@H]2O)n1 [ribavarin]
HIV [2]
  reported activity against HIV: active against HIV

## Cc1ccc(C(=O)Nc2ccc(S(=O)(=O)O)c3cc(S(=O)(=O)O)cc(S(=O)(=O)O)c23)cc1NC(=O)c1cccc(NC(=O)Nc2cccc(C(=O)Nc3cc(C(=O)Nc4ccc(S(=O)(=O)O)c5cc(S(=O)(=O)O)cc(S(=O)(=O)O)c45)ccc3C)c2)c1 [suramine]
HIV [2]
  reported activity against HIV: active against HIV

Reference: patent US5130421A, “Production of 2',3'-dideoxy-2',3'-didehydronucleosides” (priority 1991, dated 1992)
